In patent EP0013742A1, “Substituted sulfonic acid anilides, their preparation and use” (BASF Aktiengesellschaft, priority 1979, dated 1980):

Columns and labels:
Sommergerste (Union) = assay: Growth height reduction in cereals, greenhouse, foliar spray (Beispiel A); assay type: in vivo, Gerste (Union); conditions: for Pflanzenhöhe cm: sprayed at 10 cm plant height, 18 days growth; for Pflanzenhöhe relativ: untreated control = 100
Description: (§1) Im Gewächshaus wurden die Getreidearten Weizen (Kolibri) und Gerste (Union) in Kunststoffschalen von 11,5 cm Durch- messer in Torfkultursubstrat, welches ausreichend mit Nährstoffen versorgt war, eingesät. Die Wirkstoffe wurden in unterschiedlichen Aufwandmengen über das Blatt zugeführt. Die Applikation erfolgte bei einer Wuchshöhe der Pflanzen von 10 cm in üblicher Weise durch Spritzen.
(§2) Während der Wachstumszeit von 18 Tagen zeigten die behandelten Pflanzen gegenüber der unbehandelten Kontrolle ein deutlich geringeres Längenwachstum, was durch die abschließenden Längenmessungen bestätigt werden konnte. Hierbei wurden von jeder Behandlungsreihe 100 Pflanzen gemessen.

Rasen = assay: Effect on grass/lawn, vegetation test in Mitscherlich pots (Beispiel B); assay type: in vivo; conditions: for 1. Schnitt Pflanzenhöhe relativ / 1. Schnitt Pflanzenhöhe cm: 20 days after treatment; for 1. Schnitt Pflanzenhöhe relativ / 2. Schnitt Pflanzenhöhe relativ: untreated control = 100; for 2. Schnitt Pflanzenhöhe cm: regrowth over 4 weeks after 1st cut (after-effect); for 2. Schnitt Pflanzenhöhe relativ: regrowth over 4 weeks after 1st cut; for 1. Schnitt Pflanzenhöhe cm: sprayed at 4 cm height
Description: In einem Vegetationsversuch in Mitscherlichgefäßen wurde auf einem lehmigen Sandboden Rasen der folgenden Standard--Mischung angesät: Agrostis tenuis 10 %, Cynosurus cristatus 10 %, Festuca rubra 15 %, Lolium perenne 35 % und Poa pratensis 30 %. Die Düngung wurde mit 1,5 g N als Ammonnitrat und 1 ^g P205 als sec. Kaliumphosphat vorgenommen. Nach 2 vorangegangenen Schnitten wurden die Wirkstoffe in verschiedenen Aufwandmengen bei einer Wuchshöhe von 4 cm in üblicher Weise gespritzt. 20 Tage nach der Behandlung wurde die Wuchshöhe bestimmt; nach erfolgtem 1. Schnitt wurde der Wiederaufwuchs über 4 Wochen bis hin zum 2. Schnitt beobachtet und ebenfalls Längenmessungen durchgeführt, um die Nachwirkung zu überprüfen. Gegenüber der Kontrolle reagierten die Pflanzen aus den Behandlungsreihen mit sehr starken Kürzungen. Die Nachwirkung ist besser zu beurteilen als bei der zum Vergleich herangezogenen bekannten Substanz, wie nachstehende Tabelle zeigt.

Sommerweizen (Kolibri) = assay: Growth height reduction in cereals, greenhouse, foliar spray (Beispiel A); assay type: in vivo, Weizen (Kolibri); conditions: 18 days growth; for Pflanzenhöhe cm: sprayed at 10 cm plant height, 100 plants measured; for Pflanzenhöhe relativ: untreated control = 100
Description: as §1, §2

SMILES | Pflanzenhöhe cm (Sommergerste (Union); Aufwandmenge 0,25 kg/ha) | Pflanzenhöhe relativ (Sommergerste (Union); Aufwandmenge 0,25 kg/ha) | Pflanzenhöhe cm (Sommergerste (Union); Aufwandmenge 0,75 kg/ha) | Pflanzenhöhe relativ (Sommergerste (Union); Aufwandmenge 0,75 kg/ha) | Pflanzenhöhe cm (Sommergerste (Union); Aufwandmenge 1,50 kg/ha) | Pflanzenhöhe relativ (Sommergerste (Union); Aufwandmenge 1,50 kg/ha) | Pflanzenhöhe cm (Sommergerste (Union); Aufwandmenge 3,00 kg/ha) | Pflanzenhöhe relativ (Sommergerste (Union); Aufwandmenge 3,00 kg/ha) | 1. Schnitt Pflanzenhöhe relativ (Rasen; Aufwandmenge 0,5 kg/ha) | 2. Schnitt Pflanzenhöhe cm (Rasen; Aufwandmenge 0,5 kg/ha) | 2. Schnitt Pflanzenhöhe relativ (Rasen; Aufwandmenge 0,5 kg/ha) | 1. Schnitt Pflanzenhöhe cm (Rasen; Aufwandmenge 0,5 kg/ha) | 1. Schnitt Pflanzenhöhe relativ (Rasen; Aufwandmenge 0,75 kg/ha) | 2. Schnitt Pflanzenhöhe cm (Rasen; Aufwandmenge 0,75 kg/ha) | 2. Schnitt Pflanzenhöhe relativ (Rasen; Aufwandmenge 0,75 kg/ha) | 1. Schnitt Pflanzenhöhe cm (Rasen; Aufwandmenge 0,75 kg/ha) | Pflanzenhöhe cm (Sommerweizen (Kolibri); Aufwandmenge 1,5 kg/ha) | Pflanzenhöhe relativ (Sommerweizen (Kolibri); Aufwandmenge 1,5 kg/ha) | Pflanzenhöhe cm (Sommerweizen (Kolibri); Aufwandmenge 6,0 kg/ha) | Pflanzenhöhe relativ (Sommerweizen (Kolibri); Aufwandmenge 6,0 kg/ha)
CC(=O)Nc1cc(NS(=O)(=O)C(F)(F)F)c(C)cc1C [Mefluidide, 5-Acetamido-2,4--dimethyl-trifluormethansulfonsäureanilid] | 27,0 cm | 96,4 | 18,0 cm | 64,3 | 17,5 cm | 62,5 | 16,0 cm | 57,1 | – | – | – | – | – | – | – | – | – | – | – | –
CC(=O)Nc1ccc(C)c(N(C#N)S(=O)(=O)C(F)(F)F)c1 [Beispiel 67] | – | – | – | – | – | – | – | – | 97,4 | 11,0 cm | 100 | 14,0 cm | 87,4 | 9,0 cm | 81,8 | 12,5 cm | 13,5 cm | 50,4 | 12,0 cm | 44,8
CC(=O)Nc1cc(N(C#N)S(=O)(=O)C(F)(F)F)c(C)cc1C [Beispiel 1, 5-Acetamido-N -cyano-2,4-dimethyl-trifluormethansulfonsäureanilid] | – | – | – | – | – | – | – | – | 38,5 | 8,0 cm | 72,7 | 5,5 cm | 31,5 | 7,0 cm | 63,6 | 4,5 cm | 13,0 cm | 48,5 | 12,6 cm | 46,6
CC(=O)Nc1ccc(C)c(NS(=O)(=O)C(F)(F)F)c1 [Fluoridamid, 5-Acetam.ido-2-methyl-trifluormethansulfonsäureanilid, reference compound] | – | – | – | – | – | – | – | – | 94,4 | 11,0 cm | 100 | 13,5 cm | 87,4 | 10,0 cm | 90,9 | 12,5 cm | 17,0 cm | 63,4 | 15,0 cm | 56,0
